Data on 24 compounds can be found in patent publication US20170066759A1, “AROMATIC 5-MEMBERED HETEROCYCLIC DERIVATIVE HAVING TRPV4-INHIBITING ACTIVITY” (Shionogi & Co., Ltd., priority 2012, published 2017).

For this experiment, the target named is T1, human TRPV4 (hTRPV4/CHO cells) (Homo sapiens, UniProt Q9HBA0).
T1 construct: expressed in transfected cells; host or cells: CHO-K1
T1 sequence (Q9HBA0 whole entry): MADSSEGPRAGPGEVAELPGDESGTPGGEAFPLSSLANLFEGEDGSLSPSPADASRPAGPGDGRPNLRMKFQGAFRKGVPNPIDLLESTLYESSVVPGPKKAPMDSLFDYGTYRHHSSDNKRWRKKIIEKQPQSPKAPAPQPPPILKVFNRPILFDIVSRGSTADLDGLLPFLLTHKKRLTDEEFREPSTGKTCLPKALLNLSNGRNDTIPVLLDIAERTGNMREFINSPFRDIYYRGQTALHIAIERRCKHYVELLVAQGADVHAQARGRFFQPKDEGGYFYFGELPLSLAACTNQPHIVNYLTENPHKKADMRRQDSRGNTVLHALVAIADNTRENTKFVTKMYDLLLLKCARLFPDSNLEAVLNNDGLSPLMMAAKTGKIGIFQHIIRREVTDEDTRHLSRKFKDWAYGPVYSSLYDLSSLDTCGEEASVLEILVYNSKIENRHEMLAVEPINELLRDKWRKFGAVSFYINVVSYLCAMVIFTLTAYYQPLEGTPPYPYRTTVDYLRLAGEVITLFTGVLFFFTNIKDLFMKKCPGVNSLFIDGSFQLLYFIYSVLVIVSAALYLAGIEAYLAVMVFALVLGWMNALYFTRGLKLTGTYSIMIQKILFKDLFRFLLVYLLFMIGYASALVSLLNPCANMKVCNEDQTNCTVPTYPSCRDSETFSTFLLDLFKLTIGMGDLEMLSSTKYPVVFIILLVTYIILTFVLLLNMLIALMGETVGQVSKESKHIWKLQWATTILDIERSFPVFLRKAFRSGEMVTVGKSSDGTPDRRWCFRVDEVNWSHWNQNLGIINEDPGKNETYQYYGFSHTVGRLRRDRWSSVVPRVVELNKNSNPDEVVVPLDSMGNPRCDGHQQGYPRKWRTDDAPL
Put plainly: Test Example 1: TRPV4 inhibitory activity (IC50 value), 4α-PDD stimulation, Fluo4 calcium fluorescence (FLIPR TETRA). The experiment is classed as cell-based. The following applies: Test Example 1, 4α-PDD stimulation, read-out: Test 1 IC50.
Take `Cc1nc(C)c(-c2csc(NC(=O)Cc3ccc(S(=O)(=O)CC(F)F)cc3)n2)s1` [Compound I-143]: the IC50 is 100 to 1000 nM.

Turning to `Cc1nc(C)c(-c2csc(NC(=O)Cc3ccc(S(=O)(=O)Nc4ccccc4)cc3)n2)s1` [Compound I-164], the IC50 fell in the range of 100 to 1000 nM.

As for `COC(=O)N1C[C@H](c2ccccc2)C[C@H]1C(=O)Nc1nc(-c2sc(C)nc2C)cs1` [Compound I-288], the IC50 was less than 100 nM.

As for `Cc1nc(C)c(-c2csc(NC(=O)Cc3cc(C#N)cc(C(=O)N[C@H](c4ccccc4)C(F)(F)F)c3)n2)s1` [Compound I-516], the IC50 is less than 100 nM.

`CC(O)c1nc(CO)sc1-c1csc(NC(=O)Cc2ccc(S(=O)(=O)C(F)(F)F)cc2)n1` (racemic) [Compound I-235]: the IC50 is less than 100 nM.

Consider `Cc1nc(C)c(-c2csc(NC(=O)C3Cc4ccccc4N3C(=O)C(F)(F)F)n2)s1` (stereo not drawn) [Compound I-176], for which the IC50 is less than 100 nM.

As for `O=C(Nc1nc(-c2sc(CO)nc2CO)cs1)C1CN(c2ccc(C(F)(F)F)cn2)C1` [Compound I-303], the IC50 was 100 to 1000 nM.

Take `CON(C)C(=O)c1nc(C)c(-c2csc(NC(=O)Cc3c(F)cccc3F)n2)s1` [Compound I-105]: the IC50 fell in the range of 1000 to 8000 nM.

Regarding `Cc1nc(C)c(-c2nc(NC(=O)Cc3c(F)cccc3F)sc2-c2cccnc2)s1` [Compound I-63], the IC50 lay within 1000 to 8000 nM.

As to `Cc1nc(C)c(-c2csc(NC(=O)Cn3cc(C4(O)CCCCC4)nn3)n2)s1` [Compound I-189], the IC50 lay in the range of 1000 to 8000 nM.

Consider `Cc1nc(C)c(-c2csc(NC(=O)[C@H]3C[C@@H](N(C)Cc4ccc(C(F)(F)F)cc4)C3)n2)s1` [Compound I-367], for which the IC50 was less than 100 nM.

For the compound `Cc1nc(C)c(-c2csc(NC(=O)CN3CCOC(c4ccccc4)C3)n2)s1` (stereo not drawn) [Compound I-170], the IC50 lay in the range of 100 to 1000 nM.

For the compound `Cc1nc(C)c(-c2csc(NC(=O)Cn3cc(-c4cccc(S(C)(=O)=O)c4)cn3)n2)s1` [Compound I-150], the IC50 was less than 100 nM.

On to `Cc1nc(C)c(-c2csc(NC(=O)Cn3cc(C4CC4)nn3)n2)s1` [Compound I-430], for which the IC50 is 100 to 1000 nM.

As to `Cc1nc(CO)sc1-c1csc(NC(=O)C2C[C@H](C(F)(F)F)CN2C(=O)OC(C)(C)C)n1` (stereo partly drawn) [Compound I-448], the IC50 was less than 100 nM.

Consider `O=C(Cc1ccc(S(=O)(=O)C(F)(F)F)cc1)Nc1nc(-c2sc(CO)nc2CCCN2CCOCC2)cs1` [Compound I-377], for which the IC50 was less than 100 nM.

As to `Cc1nc(C)c(-c2csc(Nc3cnccn3)n2)s1` [II-34], the half-maximal inhibitory concentration (IC50) was less than 100 nM.

As to `Cc1nc(CO)sc1-c1csc(NC(=O)[C@H]2C[C@H](OCC(F)(F)F)C2)n1` [Compound I-357], the IC50 was less than 100 nM.

Take `Cc1nc(C)c(-c2nc(NC(=O)Cc3c(F)cccc3F)sc2-c2cnn(C)c2)s1` [Compound I-62]: the half-inhibitory concentration (IC50) was 1000 to 8000 nM.

In the case of `Cc1nc(CO)sc1-c1csc(NC(=O)[C@@H]2C[C@@H](c3ccccc3)CN2C(=O)C(C)C)n1` [Compound I-312], the concentration for half-maximal inhibition (IC50) lay in the range of 100 to 1000 nM.

As for `Cc1nc(C)c(-c2csc(NC(=O)Cc3ccc(S(=O)(=O)N(C)c4ccc(Cl)cc4)cc3)n2)s1` [Compound I-160], the IC50 was less than 100 nM.

As for `O=C(Nc1nc(-c2sc(CO)nc2CO)cs1)C1CC(OCC2CC2)C1` (stereo not drawn) [Compound I-339], the half-maximal inhibitory concentration (IC50) lay within 1000 to 8000 nM.

In the case of `Cc1nc(C)c(-c2csc(NC(=O)Cc3cc(O)cc(C(=O)N[C@H](c4ccccc4)C(F)(F)F)c3)n2)s1` [Compound I-511], the IC50 lay in the range of 1000 to 8000 nM.

Take `Cc1nc(C)c(-c2csc(NC(=O)C3CN(Cc4ccc(C(F)(F)F)cc4)C3)n2)s1` [Compound I-258]: the IC50 is less than 100 nM.
